Results on 7 molecules are retold here after US20130324707A1, “SYNTHETIC AMPHIPHILES FOR MEMBRANE PROTEIN MANIPULATION” (The Board of Trustees of the Leland Stanford Junior …, priority 2009, published 2013).

Marks after values point to notes of the source that are not given here.

Series [1] relates to human β2 adrenergic receptor-T4-lyosome fusion protein (β2AR-T4L). The experiment in a line: Thermal stabilization (Tm) of β2AR-T4L in amphiphile, normalized peak ratio 341 nm/356 nm. Particulars: for Tm: β2AR-T4L. The arrangement: Tm: unit: °C. From the text: FIG. 3 illustrates the results of comparing MNGs to MPAs at 10×CMC for stabilization efficacy of β2 adrenergic receptor-T4-lyosome fusion protein (β2AR-T4L), according to an embodiment of the invention.
FIG. 4 illustrates the results of comparing MNGs to MPAs at 50×CMC for stabilization efficacy of β2AR-T4L, according to an embodiment of the invention. Similar to FIG. 3, the horizontal dotted line extending from 50% on the y-axis in FIG. 4 indicates the melting temperature (Tm).
The branched amphiphiles of the invention have shown to have several advantageous properties that match or surpass those of many known amphiphiles. The branched nature provide improved stabilization, attributable to the dual saccharide chains, and improved solubilization, attributable to the dual hydrophobic tail groups. FIGS. 3 and 4 show a comparative study showing normalized peak ratios (341 nm/356 nm) for six different amphiphiles (illustrated in Schemes F and G) from 25° C. to 85° C., at 10×CMC and 50×CMC for human β2 adrenergic receptor-T4-lyosome fusion protein (β2AR-T4L).

Series [2] deals with M3 muscarinic receptor. The experiment in a line: [3H]N-methylscopolamine binding to purified M3 muscarinic receptor in amphiphiles/detergents. Particulars: for Binding (counts per minute (CPM)) of [3H]NMS compared to the use of DDM alone: upon addition of the amphiphile, HEPES pH 7.5, 100 mM NaCl. On the procedure:
For FIG. 5, the samples (DDM, MNG-28, and MNG-14) were combined with HEPES pH 7.5 buffer in a 100 mM NaCl solution. […] Therefore, the amphiphilic compounds described herein, such as the MNG amphiphiles, provide new options for enhancing the function and analysis of various isolated and/or purified proteins and receptors.

In series [3] the target is β2AR (Homo sapiens, UniProt P07550). The series is described as follows: Lipidic cubic phase (LCP) crystallization of agonist-bound β2AR. To be noted: detergent present before incorporation into LCP. From the text: LCP methods have proven useful for crystallizing membrane proteins, including G protein-coupled receptors (GPCRs). However, the process of incorporating membrane proteins from a detergent solubilized state into LCP can lead to denaturation of the protein.

In series [4] the test system is human β2 adrenergic receptor-T4-lyosome fusion protein (β2AR-T4L). The series is described as follows: Thermal stabilization (Tm) of β2AR-T4L in amphiphile, normalized peak ratio 341 nm/356 nm. The arrangement: Tm: unit: °C. Particulars: 250 × CMC; for Tm: β2AR-T4L.
Series [5] deals with R. capsulatus LHI-RC superassembly. The series is described as follows: R. capsulatus photosynthetic superassembly solubilization and purification assay (detergent classification). Further details: species or system Rhodobacter capsulatus. Particulars: words printed in the Classification column instead of a class: behaviour of the amphiphile. Here is the method: To begin the solubilization and purification process, frozen aliquots of R. capsulatus membranes were thawed, homogenized, and equilibrated to 32° C. for 30 minutes.
The membrane samples were allowed to incubate with the amphiphile for 30 minutes at 32° C. The solubilized material was then separated from the membrane debris in an ultracentrifuge at 315,000×g at 4° C. for 30 minutes. […] The tubes were then incubated and inverted for 1 hour at 4° C.
Once binding was complete, samples were loaded onto resin-retaining spin columns (e.g., emptied His Spin Trap™ columns; GE Healthcare). The columns were then inserted into a 2 mL microcentrifuge tube to retain the filtered solution during centrifugation. […] Finally, protein was eluted into a fresh microcentrifuge tube with three 0.2 mL elution buffer aliquots (this buffer was identical to binding buffer with the addition of 1 M imidazole).
The R. capsulatus LHI-RC complexes extracted and purified by this procedure contain large numbers of cofactors that have absorptions at distinct wavelengths, and each component of the LHI-RC superassembly has a different inherent stability outside the lipid bilayer. The solubilization protocol outlined above therefore provides a multifaceted assessment of the efficacy of conventional detergents and novel amphiphiles. UV-Vis absorption spectroscopy data obtained at various stages of the protocol allow one to determine which protein components have degraded at these stages. […] The disruption potential was measured as the yield of superassembly extracted during solubilization (or, alternatively and more precisely, as the absence of superassembly in the pellet from the spin following solubilization).
The stabilizing propensity was determined from the spectra of the purified protein.

A short description of series [6]: Critical micelle concentration (CMC) by fluorescent dye uptake. Type of series: physicochemical. From the text: The Critical Micelle Concentrations (CMCs) of compounds of the invention can be determined by standard techniques known to those of skill in the art. For example, CMCs of the carbohydrate-based amphiphiles described herein can be determined by monitoring uptake of a fluorescent dye (e.g., a dye such as 1,6-diphenylhexatriene) with increasing detergent concentration, monitored by fluorescence spectroscopy.

[7] abbreviates: 10 × CMC, scan from 25° C. to 85° C.

β2AR, sequence (P07550 whole entry): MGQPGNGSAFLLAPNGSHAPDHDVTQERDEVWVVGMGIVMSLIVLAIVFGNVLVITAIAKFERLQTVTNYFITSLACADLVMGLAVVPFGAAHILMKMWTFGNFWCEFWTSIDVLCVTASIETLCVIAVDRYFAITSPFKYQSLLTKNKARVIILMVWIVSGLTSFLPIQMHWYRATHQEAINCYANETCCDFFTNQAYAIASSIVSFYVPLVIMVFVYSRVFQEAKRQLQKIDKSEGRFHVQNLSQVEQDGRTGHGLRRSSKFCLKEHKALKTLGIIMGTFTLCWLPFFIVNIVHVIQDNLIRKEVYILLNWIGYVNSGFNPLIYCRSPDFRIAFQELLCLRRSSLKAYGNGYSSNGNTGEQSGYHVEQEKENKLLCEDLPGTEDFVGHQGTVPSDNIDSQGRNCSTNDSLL

`CCCCCCCCCCCCO[C@@H]1O[C@H](CO)[C@@H](O[C@H]2O[C@H](CO)[C@@H](O)[C@H](O)[C@H]2O)[C@H](O)[C@H]1O` [DDM, dodecylmaltoside, reference compound]: the Tm was 63.5 (n = 4)* in series [1] (setting [7]), 63.0 (n = 4) in series [1] (50 × CMC) and 62.2 (n = 4) in series [4]. In addition, the “Specific binding to [3H]N-methylscopolamine” value in series [2] (M3 receptor purified from baculovirus infected insect cells using the detergent) is “little specific binding”. Further, in series [3], the “Outcome of LCP crystallization of agonist-bound β2AR” value is on record as “not sufficiently stable to survive the transition to LCP”.
Consider `CC(C)(C)c1ccc(C(=O)NCC(CNC(=O)c2ccc(C(C)(C)C)cc2)(COC2OC(CO)C(O)C(O)C2O)COC2OC(CO)C(O)C(O)C2O)cc1` (centres unmarked) [GNG-3], for which the “Classification (entry in words)” value in series [5] is reported as “aggregation”.
Same read-out and setting: the result for `O=C(NCC(CNC(=O)C1CCCCC1)(COC1OC(CO)C(O)C(O)C1O)COC1OC(CO)C(O)C(O)C1O)C1CCCCC1` (centres unmarked) [GNG-5] reads “Insoluble”; that for `CC(C)(C)c1ccc(OCC(COc2ccc(C(C)(C)C)cc2)(COC2OC(CO)C(O)C(O)C2O)COC2OC(CO)C(O)C(O)C2O)cc1` (centres unmarked) [GNG-8], “aggregation”.
On to `CCCCCCCC(CCCCCCC)(COC1OC(CO)C(O)C(O)C1O)COC1OC(CO)C(O)C(O)C1O` (centres unmarked) [GNG-9], for which, in series [6], the “CMC” value turned out to be 0.11 mM and the “CMC (%)” value is reported as 0.0066%. The “Classification (entry in words)” value in series [5] is given as “limited”.
With `CCCCCCCCCCC(CCCCCCCCCC)(COC1OC(CO)C(OC2OC(CO)C(O)C(O)C2O)C(O)C1O)COC1OC(CO)C(OC2OC(CO)C(O)C(O)C2O)C(O)C1O` (centres unmarked) [MNG-14], in series [6], the “CMC” value came out at 0.01 mM. Also, the “CMC (%)” value in series [6] is recorded as 0.001%. Besides, in series [1] (10 times CMC and 50 times CMC), the “Stabilization of β2AR-T4L, comparison in words” value is “best overall properties for stabilizing β2AR-T4L”. Also, the ΔTm entry in series [1] (10 × CMC, relative to DDM) is “+3.9”; in series [1] (50 × CMC, relative to DDM), “+5.4”; in series [1] (concentration not given, matches most favourable (*) Tm minus DDM 63.5), “+4.9”; in series [4] (relative to DDM), “+4.6”. Also, the Tm in series [1] (setting [7]) is on record as 67.4 (n = 3); in series [1] (50 × CMC), 68.4 (n = 3)*; in series [4], 66.8 (n = 3). Besides, the “Binding (counts per minute (CPM)) of [3H]NMS compared to the use of DDM alone” value in series [2] is “nine-fold higher”. In addition, in series [3], the “Outcome of LCP crystallization of agonist-bound β2AR” value is reported as “diffraction quality crystals were obtained”.
Turning to `CCCCCCCCCC(CCCCCCCCC)(COC1OC(CO)C(OC2OC(CO)C(O)C(O)C2O)C(O)C1O)COC1OC(CO)C(OC2OC(CO)C(O)C(O)C2O)C(O)C1O` (centres unmarked) [MNG-28], in series [6], the “CMC” value was 0.018 mM and the “CMC (%)” value is given as 0.0018%. Besides, in series [2], the “Binding (counts per minute (CPM)) of [3H]NMS compared to the use of DDM alone” value is given as “three-fold greater”.
